# Patent US20230390315A1, “COMPOSITIONS AND METHODS FOR TREATING ISCHEMIC CONDITIONS” (The Regents of the University of California, priority 2020, published 2023)
# Entries after “also recorded” stand apart in the source; their conditions may differ.
# Experiments:
# [1] = tested on: bovine choroidal microvascular endothelial cells (BCEC); experiment: BCEC proliferation assay; assay type: cell-based; settings: for stimulation of BCEC proliferation by structurally related molecules: with or without VEGF, 0.04 μM-5 mM; for block of ManN effects on BCEC proliferation by monosaccharides: monosaccharide at maximum 1:10 molar ratio, added after 2 hours ManN; for stimulatory effect of hexosamines on BCEC proliferation: tested alongside ManN, FIG. 1D
# Method: Proliferation assays with BCECs and BRECs were performed. Log-phase growing BCECs or BRECs (passage <10) were trypsinized, re-suspended and seeded in 96-well plates (no coating) in low-glucose DMEM supplemented with 10% bovine calf serum, 2 mM glutamine, and antibiotics (growth medium), at a density of 1200-1500 cells per well in 200 μl volume. All reagents were added at the indicated final concentrations. […] Fluorescence was measured at 530 nm excitation wavelength and 590 nm emission wavelength. The experiments were repeated at least three times. […] On each 96-well plate, untreated and VEGF-treated (10/ng/ml) wells were included to monitor plate-to-plate variations. 20% methanol or 0.05% DMSO served as negative controls. 0.05% DMSO served as negative controls when Cas was tested in these cells. Human […] and human adult […] were split into Gelatin-coated 96 wells (2000 cells per well) in low glucose DMEM containing 10% FBS. 1200 cells/well was set up for proliferation assay in low glucose media containing FBS. […] HUVEC (p7-10) were grown on gelatin-coated plate until it reached 70-80% confluency. On the day of the assay, cells were dissociated with 0.05% trypsin, which was neutralized with 0.5% FBS-containing EBM. Cells were briefly spun and then re-suspended in 0.5% FBS-media. Cells were counted and plated in 96-well, 1000 cells/well. Triplicate wells were used for each treatment. Data were collected at day 3, and then cells were fixed in 4% paraformaldehyde for 15 min before adding crystal violet. Cell-covered areas were quantified after taking pictures by Image J software.
# Bip, CHOP and ATF-6 = experiment: Western blot of UPR responsive proteins in BCECs; assay type: cell-based, bovine; settings: for prevention of CHOP induction by ManN: 2 mM 4-PBA or 500 uM TUDCA, ManN at 400 uM and 5 mM; for restoration of ATF-6 expression: ManN at 400 uM
# Method: (§1) Cells were allowed to reach ˜80% confluency in 12-well plates. […] At various time points, plates were taken out of the incubator and kept on ice. Cell monolayers were first washed once with ice-cold PBS before lysis with 250 μl of Pierce RIPA buffer (ThermoFisher Scientific, Rockford, IL) or use 50 mM Tris-HCl (pH 7.6), 150 mM NaCl, 10% Glycerol, 1% NP-40 containing protease/Phosphatase inhibitor cocktail (100×) (Cell signaling, #5872). Lysates were collected and mixed with 4×Bolt LDS Sample Buffer (Novex, Carlsbad, CA) in the presence of Halt protease inhibitors and phosphatase inhibitor cocktail (ThermoFisher scientific, #NP0007). The samples were subjected to SDS-PAGE (Bolt 4-12% Bis-Tris Plus, Invitrogen) using Bolt MES SDS running buffer or NuPAGE 3-8% Tris-Acetate gel using Tris-Acetate SDS running buffer (Novex). HUVECs (passage 6-8) were plated in EBM-2 basal medium (Lonza) with 0.2% FBS. […] Equal amounts of protein lysates were analyzed by SDS-PAGE and blotted with the indicated antibodies. Proteins were transferred using Tris-Glycine buffer with 20% Methanol (Proteonomics grade) (Apex BioResearch Products). Membranes were first incubated with 5% milk in TBST, pH 7.6 (TEKnova, Hollister, CA), followed by blotting with primary and secondary antibodies. ECL anti-rabbit IgG, horseradish peroxidase linked whole antibody from donkey or sheep anti-mouse were obtained from GE Healthcare (UK limited). SuperSignal West Dura Extended Duration substrate was from ThermoFisher Scientific. In some cases, the same PVDF membranes were stripped by 8-min incubation in the Restore Plus Western Blot Stripping Buffer (ThermoFisher Scientific) to show total specific protein expression, followed by second stripping for β-actin expression.
# [2] = tested on: BCEC confluent monolayers; experiment: BCEC scratch assay; assay type: cell-based, bovine; settings: over 48 hours relative to control
# Method: BCECs (passage 6-10) and HUVEC (passage 6-8) were used in this assay. Cells were grown until about 80% confluency in 6-well plates, washed twice with PBS and then starved in serum-free DMEM (low Glucose, Hyclone) for 5 hrs before making a “scratch” using 1 ml tip. Cell monolayers were briefly washed once with serum-free media, followed by various treatments in media containing 1% FBS. 48 hrs later, the assay was stopped by adding 2 ml 4% paraformaldehyde. 20 min later, fixed cells were stained with 1 ml Crystal Violet (Sigma). Plates were washed gently under the running tap water and air-dried before taking pictures. Images were acquired by ZEISS Discovery […] microscopy equipped with […] camera. Quantification of wound closure was done using AxioVision LE Rel.4.4 software. Six images were taken for each sample and six measurements (in pixel) were made on each image using AxioVision LE Rel.4.4 software.
# VEGFR2 = experiment: Western blot of VEGFR2 molecular mass in BCECs and BRECs; assay type: cell-based, bovine; settings: 24 hours; SDS-PAGE
# Method: Glycerol-free PNGase F was obtained from New England Biolabs (Ipswich, MA). Briefly, BCECs were lysed with NP-40 containing proteinase inhibitors (Thermo Scientific, Waltham, MA). Lysates were cleared at 4° C. at 5000 g for 25 mins. Total protein content was measured using Pierce BCA protein assay kit (ThermoScientific). […] of protein was mixed with 10× denaturing buffer and H2O to a total volume of […]. Glycoproteins were denatured at 100° C. for 10 mins, followed by adding Glycobuffer and PNGase F. The reaction was carried out at 37° C. for 2 hr.
# as §1
# JNK/c-Jun = experiment: Western blot of JNK pathway activation in BCECs; assay type: cell-based, bovine; settings: media without growth factors
# Method: as §1, with “80%” for “˜80%”
# ERK and AKT = experiment: Western blot of ERK and AKT activation in HUVEC and hDMVECs; assay type: cell-based, human; settings: hDMVECs
# Method: as §1, with “80%” for “˜80%”, “ECL anti-rabbit IgG, horseradish peroxidase linked whole antibody from donkey or sheep anti-mouse were obtained from GE Healthcare (UK limited). SuperSignal West Dura Extended Duration substrate was from ThermoFisher Scientific. In some cases, the same PVDF membranes were stripped by 8-min incubation in the Restore Plus Western Blot Stripping Buffer (ThermoFisher Scientific) to show total specific protein expression, followed by second stripping for β-actin expression.” left out
# [3] = tested on: ERK, AKT, mTOR, CREB, ACC and eNOS; experiment: Western blot of signal transduction pathways in BCECs; assay type: cell-based, bovine
# Method: as §1
# [4] = mouse, in vivo, po
# retinal vasculature = experiment: Retinal neovascularization after intravitreal injection; assay type: in vivo, mouse; settings: intravitreal 500 ng ManN or Kif, 200 ng bFGF; seven days
# Method: Assessment of retinal angiogenesis following intravitreal administration was done. Briefly, 6-8 weeks old C57BL/6 male mice were randomly allocated to different groups and anesthetized with ketamine/Xylazine cocktail. The indicated amounts of ManN, Kif or bFGF (R&D systems, AF-233-NA) in 1 μl of PBS and PBS vehicle control were injected intravitreally with a 33-gauge Hamilton syringe. Seven days after injection, animals were euthanized. Eyes were then enucleated and fixed in 4% paraformaldehyde (PFA) for 30 mins. Retinas were separated and stained with anti-CD31 immunofluorescence (IF) to evidence the vasculature. Evaluations were performed by an investigator blinded to the treatment. For CD31 IF, rat anti-mouse antibody (BD Biosciences, CAT #550274) was diluted 1:100 and incubated overnight at 4° C. After 4-hour incubation with the Alexa Fluor-488-conjugated anti-rat antibody (Life Technologies, A11006), whole mounts were imaged via the 488 nm channel using A1R Confocal STORM super-resolution system (Nikon). Quantification of vascular density in choroids and retina was carried out by Image J. Each experiment was repeated three times with similar results, and each treatment group consists of 5 individual samples.
compound,measurement,setting,value
"O=C(O)CCCc1ccccc1 [4-PBA, 4-phenylbutyric acid]",additivity between ManN and VEGF after chemical chaperon pre-treatment,[1]; 1 mM 4-PBA,largely abolished
same,reversal of bell-shaped activity of ManN on BCEC proliferation by chemical chaperon,"[1]; pre-treating with 1 mM 4-PBA for 4 hours, absence or presence of VEGF",effectively reverse the bell-shaped activity of ManN
same,prevention of CHOP induction by ManN,"Bip, CHOP and ATF-6",prevent the induction of CHOP expression
same,restoration of ATF-6 expression,"Bip, CHOP and ATF-6",restore the expression of ATF-6
"O[C@H]1[C@H](O)[C@@H](O)CN2CC[C@H](O)[C@H]12 [Cas, Castanospermine, reference compound]",activity of glycosylation inhibitors in BCEC scratch assay,[2],significant activity
same,VEGFR2 molecular mass after glycosylation inhibitor treatment,VEGFR2,reduction in VEGFR2 molecular mass
same,activation of JNK pathway (JNK and downstream c-Jun),JNK/c-Jun,able to activate the JNK pathway
same,activation of ERK,ERK and AKT,less obvious
same,BCEC proliferation with N-glycosylation inhibitors,[1]; absence or presence of 5 ng/ml VEGF,stimulated in a dose-dependent fashion
same,activation of ERK,"[3]; 40 uM, BCECs",less obvious; also recorded: did not activate ERK
same,Bip expression with glycosylation inhibitors,"Bip, CHOP and ATF-6; media without growth factors for 24 hours",dose-dependent induction of Bip expression
"Cl.NCC(=O)[C@@H](O)[C@H](O)[C@H](O)CO [D-isoglucosamine, 1-Amino-1-deoxy-D-Fructose hydrochloride]",stimulation of BCEC proliferation by structurally related molecules,[1],None of these molecules stimulated BCEC proliferation
"N[C@@H]1C(O)O[C@H](COP(=O)(O)O)[C@@H](O)[C@@H]1O (stereo partly drawn) [ManN-6p, ManN-6-phosphate]",ManN-6p in ischemic leg muscle,[4],0.91+/−0.24 nmol/mg protein
"CC(=O)N[C@@H]1C(O)O[C@H](CO)[C@@H](O)[C@@H]1O (stereo partly drawn) [ManNAc, N-acetyl-Mannosamine, reference compound]","activation of ERK, AKT, mTOR, CREB, ACC and eNOS by other agents","[3]; 40 μM, compared with ManN",induced a similar activation
"CC(=O)N[C@H]1[C@H]([C@H](O)[C@H](O)CO)OC(O)(C(=O)O)C[C@@H]1O (stereo partly drawn) [N-Acetyl-neuraminic acid, N-Acetylneuraminic acid]",stimulation of BCEC proliferation by structurally related molecules,[1],None of these molecules stimulated BCEC proliferation
"C[C@H](CCC(=O)NCCS(=O)(=O)O)[C@H]1CC[C@H]2[C@@H]3[C@@H](O)C[C@@H]4C[C@H](O)CC[C@]4(C)[C@H]3CC[C@]12C [TUDCA, tauroursodeoxycholic acid]",prevention of CHOP induction by ManN,"Bip, CHOP and ATF-6",not
same,restoration of ATF-6 expression,"Bip, CHOP and ATF-6",much weaker
"C[C@H](O)[C@@H](O)[C@@H](O)[C@H](O)C=O [fucose, reference compound]",block of ManN effects on BCEC proliferation by monosaccharides,[1],not
"N[C@H]1C(O)O[C@H](CO)[C@H](O)[C@@H]1O (stereo partly drawn) [galactosamine, D-(+)-Galactosamine]",stimulatory effect of hexosamines on BCEC proliferation,[1],none of these hexosamines had significant stimulatory effects
"O=C[C@H](O)[C@@H](O)[C@@H](O)[C@H](O)CO [galactose, reference compound]",block of ManN effects on BCEC proliferation by monosaccharides,[1],not
"N[C@H]1C(O)O[C@H](CO)[C@@H](O)[C@@H]1O (stereo partly drawn) [glucosamine, D-(+)-Glucosamine]",stimulatory effect of hexosamines on BCEC proliferation,[1],none of these hexosamines had significant stimulatory effects
"CNC[C@H](O)[C@@H](O)[C@H](O)[C@H](O)CO [meglumine, Meglumine]",stimulation of BCEC proliferation by structurally related molecules,[1],None of these molecules stimulated BCEC proliferation
"C[C@@H](O[C@H]1[C@H](O)[C@@H](CO)OC(O)[C@@H]1N)C(=O)O (stereo partly drawn) [muramic acid, Muramic acid]",stimulation of BCEC proliferation by structurally related molecules,[1],None of these molecules stimulated BCEC proliferation
"bFGF: bFGF growth factor purchased from R&D systems, positive control",increase in density of retinal vessels compared to PBS group,retinal vasculature,about 35%
